This note sets out measurements from ChEMBL document CHEMBL1649371, “Isoxazolidinyl polycyclic aromatic hydrocarbons as DNA-intercalating antitumor agents” (Eur J Med Chem, 2011).

Test [1] has as its system Vero. As to the kind of experiment: Cytotoxicity against african green monkey Vero cells after 20 hrs by MTS assay. It counts as cell-based. As to conditions: Chlorocebus sabaeus. Background: Formazan colour is commonly taken as a measure of viable cells.
Test [2] concerns Nucleic Acid. As to the kind of experiment: Binding affinity to Escherichia coli phiX174 RF1 DNA assessed as DNA unwinding in presence of topoisomerase 1 after 30 mins by electrophoresis. It counts as nucleic-acid assay.
Test [3] has as its system THP-1. As to the kind of experiment: Cytotoxicity against human THP1 cells after 20 hrs by MTS assay. It counts as functional, cell-based. As to conditions: THP-1, 20 h.
Test [4] has as its system MOLT-3. As to the kind of experiment: Cytotoxicity against human MOLT3 cells after 20 hrs by MTS assay. It counts as functional, cell-based. As to conditions: MOLT-3, 20 h.
In test [5] the test system is U-937. As to the kind of experiment: Cytotoxicity against human U937 cells after 20 hrs by MTS assay. It counts as functional, cell-based. As to conditions: U-937, 20 h.
The subject of test [6] is A549. As to the kind of experiment: Cytotoxicity against human A549 cells by SRB assay. It counts as functional, cell-based. (In general: The SRB assay estimates cell density from bound dye.)
Test [7] has as its system HeLa. As to the kind of experiment: Cytotoxicity against human HeLa cells after 20 hrs by MTS assay. It counts as functional, cell-based.
In test [8] the test system is Calf thymus DNA. As to the kind of experiment: Binding affinity to calf thymus DNA by UV spectral analysis. It counts as nucleic-acid assay. The following applies: Bos taurus.
Test [9] relates to A549. As to the kind of experiment: Cytotoxicity against human A549 cells assessed as decrease of viable cells at 0.5 ug/ml after 8 hrs relative to control. It counts as functional.

Active and inactive are the calls of the source. The calls are words filed in the database; no cut-off is given here. Numbered stars: 1 amine (or outer) side, 2 acyl side, 3 side chain; on linkers, the order of the positions; unused ones are H or OH. Bridge positions count the residues as written; N and C are the ends. Square brackets hold non-standard residues; d marks the D form. Peptide text beside a SMILES is read from it. I, II: the chains in the order shown. Actinocin(1to9) = Cc1c2oc3c(C)ccc(C(=O)[*:2])c3nc-2c(C(=O)[*:1])c(N)c1=O; NMeV = CN[C@H](C(=O)O)C(C)C; Sar = CNCC(=O)O Where only a bound is given, the exact number is not on record here.

Regarding `CN1O[C@H](CN)C[C@@H]1c1ccc2ccc3cccc4ccc1c2c34` (racemic), the IC50 in test [1] was found to be 102 µM; in test [3], 19 µM; in [4], 12 µM; in test [5] it was 88 µM; in test [6], 9 µM; in test [7], 15 µM. In test [2], the outcome was Active. Moreover, the Kb in [8] worked out at 9.6 ×10⁴ /M.

On to `NC[C@@H]1C[C@H](c2cc3ccccc3c3ccccc23)N(Cc2ccccc2)O1` (racemic), for which the IC50 in test [1] was determined as 132 µM; in test [3], 55 µM; in test [4], 43 µM; in [5], 154 µM; in [6] it was 32 µM; in [7], 50 µM.

Regarding `CN1O[C@H]2C(=O)NC(=O)[C@H]2[C@@H]1c1ccc2ccc3cccc4ccc1c2c34` (racemic), the IC50 amounted to 150 µM in test [1]; 102 µM in test [3]; 95 µM in test [4]; 130 µM in test [5]; 83 µM in test [6]; 135 µM in test [7].

In test [4], `Cc1c2oc3c(C)ccc(C(=O)N[C@@H]4C(=O)N[C@H](C(C)C)C(=O)N5CCC[C@H]5C(=O)N(C)CC(=O)N(C)[C@@H](C(C)C)C(=O)O[C@@H]4C)c3nc-2c(C(=O)N[C@@H]2C(=O)N[C@H](C(C)C)C(=O)N3CCC[C@H]3C(=O)N(C)CC(=O)N(C)[C@@H](C(C)C)C(=O)O[C@@H]2C)c(N)c1=O` [DACTINOMYCIN] (I: T[dV]P[Sar][NMeV] / II: T[dV]P[Sar][NMeV]; ester I:1-I:C, II:1-II:C; linker I:N-II:N via Actinocin(1to9)) had an IC50 of at most 1 µM. The Activity in test [9] is on record as 40%.

For `CN1O[C@@H](CN)C[C@@H]1c1ccc2ccc3cccc4ccc1c2c34` (racemic), the IC50 in [1] was found to be 110 µM; in [3], 18 µM; in test [4], 17 µM; in test [5], 80 µM; in test [6] it was 11 µM; in test [7], 15 µM.

In test [8], `CN1O[C@H](CO)C[C@@H]1c1ccc2ccc3cccc4ccc1c2c34` registered a Kb of 6.8 ×10³ /M.

As for `NC[C@H]1C[C@H](c2cc3ccccc3c3ccccc23)N(Cc2ccccc2)O1` (racemic), the IC50 was determined as 140 µM in test [1]; 61 µM in test [3]; 50 µM in test [4]; 112 µM in test [5]; 35 µM in [6]; 45 µM in test [7].

Consider `CN1O[C@@H]2C(=O)NC(=O)[C@@H]2[C@@H]1c1ccc2ccc3cccc4ccc1c2c34` (racemic), for which the IC50 in test [1] is above 500 µM; in test [3], 399 µM; in test [4], 415 µM; in test [5], above 500 µM; in test [6], 328 µM; in test [7], 284 µM.

The IC50 is the concentration that gives 50% inhibition.
